Target: T1, GPR84 (Homo sapiens, UniProt Q9NQS5)
T1 construct: expressed in transfected cells
Assay: GPR84 [35S]GTPγS binding assay
Assay type: biochemical
Conditions: 3,3′-diindolylmethane at EC80; membranes from stable cell line over expressing GPR84
Method: The following assay can be used for determination of GPR84 activation. The [^35S]GTPγS binding assay measures the level of G protein activation following agonist occupation of a GPCR, by determining the binding of the non-hydrolysable analog [^35S]GTPγS to Gα subunits.
The assay is performed in a 96-well plate where the following reagents are added. First 50 μL compound is added into the assay plate, followed by addition of 20 μL 3,3′-diindolylmethane at EC80 concentration (concentration which gives 80% of the activity of GPR84). Then, 30 μL of a mixture consisting of membranes-GTPγS-SpA beads is added [mixture consists of 20 μg/well membranes derived from stable cell line over expressing GPR84 (membranes are pre-incubated with 0.1 μM GDP for 15 min at 4° C.), 0.1 nM [^35S]GTPγS (Perkin Elmer, NEG030) and 0.5 mg/well PVT-WGA SpA beads (Perkin Elmer, RPNQ0001)]. All components are diluted in assay buffer containing 20 mM Tris pH 7.5; 5 mM MgCl2; 250 mM NaCl; 0.05% BSA; 75 μg/mL saponin. After an incubation of 90 min at room temperature, 20 μL CsCl2 0.8 M (MP Biomedicals, 02150589) is added, followed by centrifugation at 2000 rpm during 20 min. Plates are read on a topcount reader (perkin elmer) immediately after centrifugation (readout time, 1 min/well).

T1 sequence (Q9NQS5 whole entry): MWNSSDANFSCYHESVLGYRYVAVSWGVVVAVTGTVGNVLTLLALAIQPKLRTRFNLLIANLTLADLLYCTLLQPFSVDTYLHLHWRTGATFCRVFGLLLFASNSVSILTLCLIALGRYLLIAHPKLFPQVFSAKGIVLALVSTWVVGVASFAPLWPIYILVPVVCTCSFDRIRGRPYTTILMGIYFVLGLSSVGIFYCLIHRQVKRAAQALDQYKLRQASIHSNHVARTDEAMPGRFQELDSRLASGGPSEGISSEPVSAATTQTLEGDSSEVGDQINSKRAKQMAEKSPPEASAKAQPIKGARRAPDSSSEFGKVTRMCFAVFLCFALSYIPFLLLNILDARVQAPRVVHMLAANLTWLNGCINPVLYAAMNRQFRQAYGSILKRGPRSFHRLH

**Q.** Which IC50 does the source give for `Cc1c2n(c(OC[C@@H]3COCCO3)cc1=O)CCc1cc(C3=CCN(C(=O)OC(C)(C)C)CC3)ccc1-2` [Compound 74, tert-butyl 4-[4-[[(2S)-1,4-dioxan-2-yl]methoxy]-1-methyl-2-oxo-6,7-dihydrobenzo[a]qunolizin-9-yl]-3,6-dihydro-2H-pyridine-1-carboxylate] here?
**A.** 0.01 to 100 nM

**Q.** How did the IC50 turn out when `Cc1c2n(c(OC[C@@H]3COCCO3)cc1=O)CCc1cc(N3CC=C(C(F)(F)F)CC3)ccc1-2` [Compound 133, 4-[[(2S)-1,4-dioxan-2-yl]methoxy]-1-methyl-9-[4-(trifluoromethyl)-3,6-dihydro-2H-pyridin-1-yl]-6,7-dihydrobenzo[a]quinolizin-2-one] was run?
**A.** 0.01 to 100 nM

**Q.** Which IC50 does the source give for `Cc1c2n(c(OC[C@@H]3COCCO3)cc1=O)CCc1cc(C(C)C)ccc1-2` [Compound 124, 4-[[(2S)-1,4-dioxan-2-yl]methoxy]-9-isopropyl-1-methyl-6,7-dihydrobenzo[a]quinolizin-2-one] here?
**A.** 0.01 to 100 nM

**Q.** `Cc1c2n(c(OC[C@@H]3CCCO3)cc1=O)CCc1cc(OCc3ccccc3)ccc1-2` [Compound 108, 9-benzyloxy-1-methyl-4-[[(2S)-tetrahydrofuran-2-yl]methoxy]-6,7-dihydrobenzo[a]quinolizin-2-one] was tested. Which IC50 did it give?
**A.** 0.01 to 100 nM

**Q.** For `Cc1c2n(c(OC[C@@H]3COCCO3)cc1=O)CCc1cc(N3CCC(C(F)(F)F)CC3)ccc1-2` [Compound 140, 4-[[(2S)-1,4-dioxan-2-yl]methoxy]-1-methyl-9-[4-(trifluoromethyl)-1-piperidyl]-6,7-dihydrobenzo[a]quinolizin-2-one], which IC50 is on record?
**A.** 0.01 to 100 nM

**Q.** For `Cc1c2n(c(OC[C@@H]3COCCO3)cc1=O)CCc1cc(N3CCN(S(C)(=O)=O)CC3)ccc1-2` [Compound 68], which IC50 is on record?
**A.** 0.01 to 100 nM

**Q.** Which IC50 does the source give for `Cc1c2n(c(OC[C@@H]3COCCO3)cc1=O)CCc1cc(-n3c4ccccc4c4ccccc43)ccc1-2` [Compound 136, 9-carbazol-9-yl-4-[[(2S)-1,4-dioxan-2-yl]methoxy]-1-methyl-6,7-dihydrobenzo[a]quinolizin-2-one] here?
**A.** 0.01 to 100 nM

**Q.** Which IC50 does the source give for `Cc1c2n(c(OC[C@@H]3COCCO3)cc1=O)CCc1cc(N3CCC(c4ccccc4)CC3)ccc1-2` [Compound 113, 4-[[(2S)-1,4-dioxan-2-yl]methoxy]-1-methyl-9-(4-phenyl-1-piperidyl)-6,7-dihydrobenzo[a]quinolizin-2-one] here?
**A.** 0.01 to 100 nM

**Q.** Which IC50 does the source give for `CCOC(=O)N1CC(Oc2ccc3c(c2)CCn2c(OC[C@@H]4COCCO4)cc(=O)c(C)c2-3)C1` [Compound 120, ethyl 3-[[4-[[(2S)-1,4-dioxan-2-yl]methoxy]-1-methyl-2-oxo-6,7-dihydrobenzo[a]quinolizin-9-yl]oxy]azetidine-1-carboxylate] here?
**A.** 0.01 to 100 nM

**Q.** With `Cc1c2n(c(OC[C@@H]3COCCO3)cc1=O)CCc1cc(N3CCCCC3C)ccc1-2` (stereo partly drawn) [Compound 143, 4-[[(2S)-1,4-dioxan-2-yl]methoxy]-1-methyl-9-(2-methyl-1-piperidyl)-6,7-dihydrobenzo[a]quinolizin-2-one] as the compound, how does the IC50 read?
**A.** 0.01 to 100 nM

**Q.** With `Cc1c2n(c(OC[C@@H]3COCCO3)cc1=O)CCc1cc(-c3ccccn3)ccc1-2` [Compound 101, 4-[[(2S)-1,4-dioxan-2-yl]methoxy]-1-methyl-9-(2-pyridyl)-6,7-dihydrobenzo[a]quinolizin-2-one] as the compound, how does the IC50 read?
**A.** 0.01 to 100 nM

**Q.** `CCc1c2n(c(NCC3CCCO3)cc1=O)CCc1cc(O)ccc1-2` (centres unmarked) [Compound 3, 1-ethyl-9-hydroxy-4-(tetrahydrofuran-2-ylmethylamino)-6,7-dihydrobenzo[a]quinolizin-2-one] was tested. Which IC50 did it give?
**A.** > 1000 nM

**Q.** How did the IC50 turn out when `Cc1c2n(c(OC[C@@H]3COCCO3)cc1=O)CCc1cc(OC3CN(C(=O)NC(C)C)C3)ccc1-2` [Compound 151] was run?
**A.** 500 to 1000 nM

**Q.** Which IC50 does the source give for `Cc1c2n(c(OC[C@@H]3COCCO3)cc1=O)CCc1cc(OC3CN(C(=O)N(C)C)C3)ccc1-2` [Compound 150, 3-[[4-[[(2S)-1,4-dioxan-2-yl]methoxy]-1-methyl-2-oxo-6,7-dihydrobenzo[a]quinolizin-9-yl]oxy]-N,N-dimethyl-azetidine-1-carboxamide] here?
**A.** 500 to 1000 nM

**Q.** How did the IC50 turn out when `COc1ccc2c(c1)CCn1c(OC[C@@H]3COCCO3)cc(=O)c(C)c1-2` [Compound 89, 4-[[(2S)-1,4-dioxan-2-yl]methoxy]-9-methoxy-1-methyl-6,7-dihydrobenzo[a]quinolizin-2-one] was run?
**A.** 0.01 to 100 nM

**Q.** For `Cc1c2n(c(OC[C@@H]3COCCO3)cc1=O)CCc1cc(OS(C)(=O)=O)ccc1-2` [Compound 56, [4-[[(2S)-1,4-dioxan-2-yl]methoxy]-1-methyl-2-oxo-6,7-dihydrobenzo[a]quinolizin-9-yl] methanesulfonate], which IC50 is on record?
**A.** 100 to 500 nM

**Q.** How did the IC50 turn out when `Cc1c2n(c(OC[C@@H]3COCCO3)cc1=O)CCc1cc(N3CCCCC3)ccc1-2` [Compound 115, 4-[[(2S)-1,4-dioxan-2-yl]methoxy]-1-methyl-9-(1-piperidyl)-6,7-dihydrobenzo[a]quinolizin-2-one] was run?
**A.** 0.01 to 100 nM

**Q.** `Cc1c2n(c(OCC3CC(C)(C)O3)cc1=O)CCc1cc(OCc3ccccc3)ccc1-2` (centres unmarked) [Compound 152, 9-benzyloxy-4-[(4,4-dimethyloxetan-2-yl)methoxy]-1-methyl-6,7-dihydrobenzo[a]quinolizin-2-one] was tested. Which IC50 did it give?
**A.** 100 to 500 nM

**Q.** Which IC50 does the source give for `Cc1c2n(c(OC[C@@H]3COCCO3)cc1=O)CCc1cc(OC[C@@H]3COCCO3)ccc1-2` [Compound 62, 4,9-bis[[(2S)-1,4-dioxan-2-yl]methoxy]-1-methyl-6,7-dihydrobenzo[a]quinolizin-2-one] here?
**A.** 0.01 to 100 nM

**Q.** Which IC50 does the source give for `Cc1c2n(c(OC[C@@H]3COCCO3)cc1=O)CCc1cc(N3CC(C(F)(F)F)C3)ccc1-2` [Compound 132, 4-[[(2S)-1,4-dioxan-2-yl]methoxy]-1-methyl-9-[3-(trifluoromethyl)azetidin-1-yl]-6,7-dihydrobenzo[a]quinolizin-2-one] here?
**A.** 0.01 to 100 nM

**Q.** With `Cc1c2n(c(OC[C@@H]3COCCO3)cc1=O)CCc1cc(OC3CCN(C(=O)OC(C)(C)C)CC3)ccc1-2` [Compound 128, tert-butyl 4-[[4-[[(2S)-1,4-dioxan-2-yl]methoxy]-1-methyl-2-oxo-6,7-dihydrobenzo[a]quinolizin-9-yl]oxy]piperidine-1-carboxylate] as the compound, how does the IC50 read?
**A.** 0.01 to 100 nM

**Q.** With `Cc1c2n(c(OCC3CCO3)cc1=O)CCc1cc(OCc3ccccc3)ccc1-2` (centres unmarked) [Compound 107, 9-benzyloxy-1-methyl-4-(oxetan-2-ylmethoxy)-6,7-dihydrobenzo[a]quinolizin-2-one] as the compound, how does the IC50 read?
**A.** 100 to 500 nM

**Q.** Which IC50 does the source give for `Cc1c2n(c(OC[C@@H]3COCCO3)cc1=O)CCc1cc(OC3CN(C(=O)C(F)(F)F)C3)ccc1-2` [Compound 119, 4-[[(2)S-1,4-dioxan-2-yl]methoxy]-1-methyl-9-[1-(2,2,2-trifluoroacetyl)azetidin-3-yl]oxy-6,7-dihydrobenzo[a]quinolizin-2-one] here?
**A.** 100 to 500 nM

**Q.** Which IC50 does the source give for `Cc1c2n(c(OC[C@@H]3COCCO3)cc1=O)CCc1cc(N3CC(C)(C)C3)ccc1-2` [Compound 96, 9-(3,3-dimethylazetidin-1-yl)-4-[[(2S)-1,4-dioxan-2-yl]methoxy]-1-methyl-6,7-dihydrobenzo[a]quinolizin-2-one] here?
**A.** 0.01 to 100 nM

**Q.** For `Cc1c2n(c(OC[C@@H]3COCCO3)cc1=O)CCc1cc(N3CC(S(C)(=O)=O)C3)ccc1-2` [Compound 94, 4-[[(2S)-1,4-dioxan-2-yl]methoxy]-1-methyl-9-(3-methylsulfonylazetidin-1-yl)-6,7-dihydrobenzo[a]quinolizin-2-one], which IC50 is on record?
**A.** 500 to 1000 nM

**Q.** `Cc1c2n(c(OC[C@@H]3COCCO3)cc1=O)CCc1cc(N(C)C(=O)C3CC3)ccc1-2` [Compound 73, N-[4-[[(2S)-1,4-dioxan-2-yl]methoxy]-1-methyl-2-oxo-6,7-dihydrobenzo[a]quinolizin-9-yl]-N-methyl-cyclopropanecarboxamide] was tested. Which IC50 did it give?
**A.** 100 to 500 nM

— US10568879B2 (GALAPAGOS NV, priority 2015, dated 2020)
